Results on two compounds are retold here after PMC10095708, “Discovery of Novel STING Inhibitors Based on the Structure of the Mouse STING Agonist DMXAA” (Molecules, 2023).

The target in one test is hSTING-R232 (Homo sapiens, UniProt Q86WV6, H232R). In words: Cellular assay for STING inhibitory activity, 293T hSTING-R232 cells stimulated with 2′,3′-cGAMP (SEAP). Conditions: compound at 100 μM.
The subject of test [1] is hSTING. Set-up: method as in PMID 31927317. To be noted: STING reporter cells, agonist activity; cited from earlier work.
A further test concerns the target T1, hSTING-WT (Homo sapiens, UniProt Q86WV6, H232R).
T1 construct: purchased Cisbio
In words: HTRF STING competition binding (cGAMP displacement) assay, hSTING-WT. Conditions: for IC50: HTRF displacement assay, means from at least three repeated experiments; for binding to hSTING-WT in displacement assay, in words: concentrations up to 100 μM. Here is the method:
(§1) Mouse STING binding kits, human STING WT binding kits, human AQ STING binding kits, human H232 STING binding kits were purchased from Cisbio. […] QUANTI-Blue solution, QUANTI-Luc, 2′,3′-cGAMP were purchased from Invivogen. […] CellTiter-Glo luminescent cell viability assay kit was obtained from Promega.
(§2) According to the instructions of STING binding kits, the following solutions were successively added to each well in the 384-well plate: 5 μL of the detection compounds or 2′,3′-cGAMP (positive control) with different concentrations or diluent (negative control); 5 μL of human STING 6His-tagged protein (negative control well was added to detection buffer); 10 μL of STING ligand d2 and Anti 6His-Tb3^+ premixed working solution.
Background: Time-resolved FRET reads energy transfer from a long-lived donor to a nearby acceptor.

A further test concerns the target T2, hSTING-H232 (Homo sapiens, UniProt Q86WV6).
T2 construct: purchased Cisbio
In words: HTRF STING competition binding (cGAMP displacement) assay, hSTING-H232. To be noted: for IC50: HTRF displacement assay, means from at least three repeated experiments; for binding to hSTING-H232 in displacement assay, in words: concentrations up to 100 μM. Here is the method:
as §1, §2

The next test has as its target T3, hSTING-AQ (Homo sapiens, UniProt Q86WV6, G230A/R293Q).
T3 construct: purchased Cisbio
In words: HTRF STING competition binding (cGAMP displacement) assay, hSTING-AQ. Conditions: for IC50: HTRF displacement assay, means from at least three repeated experiments; for binding to hSTING-AQ in displacement assay, in words: concentrations up to 100 μM. Here is the method:
as §1, §2

The subject of test [2] is hSTING. Set-up: method as in PMID 31927317. To be noted: STING competition binding kits; cited from earlier work.
Test [3] deals with T4, mSTING (Mus musculus, UniProt Q3TBT3).
T4 sequence (Q3TBT3 1-378): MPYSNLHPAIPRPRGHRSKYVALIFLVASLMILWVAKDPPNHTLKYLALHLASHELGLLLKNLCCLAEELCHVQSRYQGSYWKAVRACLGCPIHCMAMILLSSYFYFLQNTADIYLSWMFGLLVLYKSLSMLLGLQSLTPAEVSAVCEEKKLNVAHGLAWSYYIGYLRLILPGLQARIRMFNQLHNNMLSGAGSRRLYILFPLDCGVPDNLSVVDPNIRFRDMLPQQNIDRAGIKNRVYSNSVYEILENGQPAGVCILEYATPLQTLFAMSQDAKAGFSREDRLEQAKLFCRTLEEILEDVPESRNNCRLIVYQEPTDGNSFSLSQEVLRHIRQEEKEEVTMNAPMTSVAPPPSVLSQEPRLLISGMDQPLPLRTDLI
In words: Cellular assay for STING inhibitory activity, 293T mSTING cells stimulated with 2′,3′-cGAMP (SEAP). Conditions: compound at 100 μM.

The target of test [4] is T4, mSTING. Further details: purchased Cisbio; method as in PMID 31927317. Conditions: STING reporter cells, agonist activity; cited from earlier work.
Test [5] addresses T4, mSTING. In words: HTRF STING competition binding (cGAMP displacement) assay, mSTING. Set-up: purchased Cisbio. To be noted: HTRF displacement assay, means from at least three repeated experiments. The protocol: as §1, §2

Structures are written as SMILES.

T2 sequence (Q86WV6 135-379 limits assumed): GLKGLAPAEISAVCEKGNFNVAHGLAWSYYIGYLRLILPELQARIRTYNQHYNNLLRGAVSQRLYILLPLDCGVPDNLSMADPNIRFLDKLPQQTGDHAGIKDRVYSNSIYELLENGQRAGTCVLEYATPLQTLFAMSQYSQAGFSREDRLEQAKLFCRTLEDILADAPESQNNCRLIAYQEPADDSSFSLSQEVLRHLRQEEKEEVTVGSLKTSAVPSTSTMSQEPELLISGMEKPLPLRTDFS
T1 sequence (Q86WV6 whole entry H232R): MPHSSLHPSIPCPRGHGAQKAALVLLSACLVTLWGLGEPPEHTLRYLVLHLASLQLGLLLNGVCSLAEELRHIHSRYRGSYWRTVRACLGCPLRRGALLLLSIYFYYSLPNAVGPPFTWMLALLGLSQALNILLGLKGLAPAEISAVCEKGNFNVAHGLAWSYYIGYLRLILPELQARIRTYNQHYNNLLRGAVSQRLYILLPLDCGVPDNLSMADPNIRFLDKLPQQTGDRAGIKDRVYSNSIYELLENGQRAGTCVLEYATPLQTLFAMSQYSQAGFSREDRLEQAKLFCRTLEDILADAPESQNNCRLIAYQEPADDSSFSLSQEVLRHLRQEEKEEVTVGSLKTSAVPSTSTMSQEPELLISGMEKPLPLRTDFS
T3 sequence (Q86WV6 whole entry G230A/R293Q): as the sequence (Q86WV6 whole entry H232R) above, with G230A, R232H, R293Q counted along it
Sequence of hSTING-R232 (Q86WV6 whole entry H232R): as the sequence (Q86WV6 whole entry H232R) above

Turning to `COc1cc2c(=O)c3cccc4c3n(c2c(C)c1C)C(=O)C4` [Compound 3], the “inhibitory potency in human STING reporter cells, initial screen” value against hSTING-R232 is “not being as effective”. The figures for the 50% effective concentration (EC50) with hSTING [1] and on mSTING [4] were 154 ± 9.6 µM and 66.5 ± 10.5 µM, respectively. Further, the IC50 – broadly, the concentration at which inhibition is half-maximal – is 18.3 µM at hSTING-WT; 36 µM at hSTING-H232; 58.2 µM at hSTING-AQ; 10.3 µM in the test on hSTING [2]; 33.3 µM at mSTING [5]. Moreover, the “binding to hSTING-WT in displacement assay, in words” value at hSTING-WT is “IC50 values at the micromolar level”. The “binding to hSTING-H232 in displacement assay, in words” value at hSTING-H232 was “IC50 values at the micromolar level”. The “binding to hSTING-AQ in displacement assay, in words” value on hSTING-AQ was “IC50 values at the micromolar level”. In addition, the “inhibitory potency in murine STING reporter cells, initial screen” value against mSTING [3] is “not being as effective”.
As to `COc1cc2c(=O)c3cccc(CC(=O)O)c3[nH]c2c(C)c1C` [Compound 4], the “inhibitory potency in human STING reporter cells, initial screen” value against hSTING-R232 is given as “not being as effective”. Moreover, the half-maximal effective concentration (EC50) – broadly, the concentration giving half of the maximal effect – was 135 ± 12.1 µM in the test with hSTING [1] and 72.3 ± 11.1 µM at mSTING [4]. The IC50 at hSTING-WT was 21.1 µM; at hSTING-H232, 43.8 µM; on hSTING-AQ, 47.6 µM; in the test on hSTING [2], 13.1 µM; on mSTING [5], 28.2 µM. Further, the “binding to hSTING-WT in displacement assay, in words” value at hSTING-WT was “IC50 values at the micromolar level”. The “binding to hSTING-H232 in displacement assay, in words” value on hSTING-H232 was “IC50 values at the micromolar level”. In addition, the “binding to hSTING-AQ in displacement assay, in words” value at hSTING-AQ is recorded as “IC50 values at the micromolar level”. Moreover, the “inhibitory potency in murine STING reporter cells, initial screen” value against mSTING [3] is “not being as effective”.
